From ChEMBL document CHEMBL1138912, “Dipeptidyl nitriles as human dipeptidyl peptidase I inhibitors” (Bioorg Med Chem Lett, 2006) come the findings set out here.

The IC50 is the concentration that gives 50% inhibition. Low values mean greater potency in that assay, high ones weaker potency in that assay.

Active and inactive are the calls of the source. The rule behind the calls is not given here.

Series [1] deals with T1, Pro-cathepsin H (Homo sapiens, UniProt P09668).
T1 sequence (P09668 whole entry): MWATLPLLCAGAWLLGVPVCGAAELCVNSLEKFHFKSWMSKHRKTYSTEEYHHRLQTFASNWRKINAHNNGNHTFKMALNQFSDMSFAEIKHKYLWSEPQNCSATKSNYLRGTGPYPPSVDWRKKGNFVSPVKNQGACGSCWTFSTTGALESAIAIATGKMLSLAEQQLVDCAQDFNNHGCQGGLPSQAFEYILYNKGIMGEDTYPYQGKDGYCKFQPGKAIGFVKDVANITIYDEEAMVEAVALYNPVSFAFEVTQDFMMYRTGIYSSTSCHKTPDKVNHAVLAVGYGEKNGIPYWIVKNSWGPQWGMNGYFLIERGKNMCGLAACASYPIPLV
The series is described as follows: Inhibition of Cathepsin H.

Series [2] concerns the target Procathepsin L (Homo sapiens, UniProt P07711). The series is described as follows: Inhibition of Cathepsin L.
Series [3] addresses Cytochrome P450 2C19 (Homo sapiens, UniProt P33261). The series is described as follows: Inhibition of CYP2C19. The format is ADME.
In series [4] the target is Cathepsin B (Homo sapiens, UniProt P07858). The series is described as follows: Inhibition of Cathepsin B.
The target in series [5] is Cytochrome P450 2C9 (Homo sapiens, UniProt P11712). The series is described as follows: Inhibition of CYP2C9. The format is ADME.
Series [6] addresses T2, Dipeptidyl peptidase 1 (Homo sapiens, UniProt P53634). The series is described as follows: Residual activity at human DPP1 at 10 uM.
For series [7], the target named is T2, Dipeptidyl peptidase 1. The series is described as follows: Inhibition of human DPP1.
A short description of series [8]: Metabolic stability in rat liver microsomes after 15 min. The format is ADME, Microsome. As to conditions: read-out: Stability. For orientation: Liver microsomes are vesicles of endoplasmic reticulum, rich in cytochrome P450 enzymes.
Series [9] concerns the target T2, Dipeptidyl peptidase 1. The series is described as follows: Inhibition of human DPP1 at 20 uM.

T2 sequence (P53634 25-134 limits assumed): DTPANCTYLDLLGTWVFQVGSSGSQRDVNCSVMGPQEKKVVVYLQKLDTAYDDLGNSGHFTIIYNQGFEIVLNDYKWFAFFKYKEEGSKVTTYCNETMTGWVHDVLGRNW
T2 sequence (P53634 231-394 limits assumed): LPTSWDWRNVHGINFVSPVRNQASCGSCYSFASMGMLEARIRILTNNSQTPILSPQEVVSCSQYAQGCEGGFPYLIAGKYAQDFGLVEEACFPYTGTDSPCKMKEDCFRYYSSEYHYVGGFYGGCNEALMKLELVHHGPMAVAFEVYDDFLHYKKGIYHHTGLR
T2 sequence (P53634 395-463 limits assumed): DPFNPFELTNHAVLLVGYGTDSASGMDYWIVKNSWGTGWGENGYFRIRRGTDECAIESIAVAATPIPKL
Sequence of Cytochrome P450 2C19 (P33261 whole entry): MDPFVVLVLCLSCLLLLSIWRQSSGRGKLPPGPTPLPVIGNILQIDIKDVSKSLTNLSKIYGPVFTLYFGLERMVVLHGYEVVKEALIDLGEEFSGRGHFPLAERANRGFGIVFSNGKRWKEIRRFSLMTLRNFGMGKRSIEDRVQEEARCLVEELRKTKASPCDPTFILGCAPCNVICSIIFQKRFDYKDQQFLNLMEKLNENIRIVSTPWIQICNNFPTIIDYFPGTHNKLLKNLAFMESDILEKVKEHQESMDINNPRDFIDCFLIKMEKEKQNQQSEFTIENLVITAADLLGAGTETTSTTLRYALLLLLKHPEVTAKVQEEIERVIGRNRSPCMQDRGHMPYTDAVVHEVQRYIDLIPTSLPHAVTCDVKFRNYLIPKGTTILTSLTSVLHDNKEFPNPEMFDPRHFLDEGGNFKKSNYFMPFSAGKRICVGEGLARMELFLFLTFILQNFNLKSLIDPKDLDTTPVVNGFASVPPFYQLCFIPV
Sequence of Cytochrome P450 2C9 (P11712 whole entry): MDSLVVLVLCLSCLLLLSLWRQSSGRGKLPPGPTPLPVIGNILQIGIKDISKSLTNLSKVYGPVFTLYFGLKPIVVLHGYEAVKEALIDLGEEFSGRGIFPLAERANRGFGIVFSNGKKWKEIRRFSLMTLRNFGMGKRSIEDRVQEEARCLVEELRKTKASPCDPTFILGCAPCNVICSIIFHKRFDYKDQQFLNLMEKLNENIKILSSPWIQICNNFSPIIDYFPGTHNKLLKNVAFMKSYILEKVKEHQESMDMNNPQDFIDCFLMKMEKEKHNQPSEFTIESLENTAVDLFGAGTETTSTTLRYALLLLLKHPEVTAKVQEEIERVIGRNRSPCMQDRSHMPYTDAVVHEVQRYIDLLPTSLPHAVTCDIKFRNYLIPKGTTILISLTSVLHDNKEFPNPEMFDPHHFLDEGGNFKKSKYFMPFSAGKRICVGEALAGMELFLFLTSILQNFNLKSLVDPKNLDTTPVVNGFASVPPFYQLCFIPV
Sequence of Procathepsin L (P07711 whole entry): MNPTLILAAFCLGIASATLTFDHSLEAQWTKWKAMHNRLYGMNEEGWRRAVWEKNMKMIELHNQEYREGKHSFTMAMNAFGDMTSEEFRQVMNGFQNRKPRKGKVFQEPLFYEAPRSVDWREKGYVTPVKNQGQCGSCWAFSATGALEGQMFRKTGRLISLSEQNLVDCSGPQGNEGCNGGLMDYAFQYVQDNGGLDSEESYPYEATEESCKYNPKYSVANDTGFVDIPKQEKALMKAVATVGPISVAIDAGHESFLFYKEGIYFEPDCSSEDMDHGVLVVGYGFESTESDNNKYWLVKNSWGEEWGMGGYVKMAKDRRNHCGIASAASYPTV

Turning to `CC[C@H](N)C(=O)N[C@H](C#N)Cc1ccc(-c2ccccc2)cc1`, the concentration for half-maximal inhibition (IC50) was greater than 10 µM in series [1]; greater than 10 µM in series [2]; greater than 20 µM in [3]; greater than 10 µM in series [4]; greater than 20 µM in series [5].

`CC[C@H](N)C(=O)N(C)[C@H](C#N)Cc1ccccc1` came in with an Activity in series [6] of 94%.

For the compound `N#CC(Cc1ccccc1)NC(=O)[C@@H](N)Cc1ccccc1` (stereo in doubt; 8), 418 nM corresponded to half-maximal inhibition in series [7] (IC50). For the same compound, the remaining at 0.25 h in series [8] turned out to be 45%.

As for `CC[C@H](N)C(=O)N[C@H](C#N)Cc1ccc(Cl)cc1`, the IC50 in [7] came to 96 nM. Further, the remaining at 0.25 h in series [8] turned out to be 70%.

`CC[C@H](N)C(=O)N[C@H](C#N)CCc1ccccc1` gave an IC50 in series [7] of 822 nM. Further, the remaining at 0.25 h in series [8] came out at 74%.

`N#C[C@H](Cc1ccccc1)NC(=O)[C@@H]1CCCN1` had a concentration for half-maximal inhibition (IC50) in series [7] of 9640 nM. Moreover, the remaining at 0.25 h in series [8] is 39%.

Turning to `N#CC(Cc1ccccc1)NC(=O)[C@@H](N)Cc1ccccc1` (single isomer, unassigned; isomer B), in [7], inhibition was half-maximal at 6300 nM (IC50).

The compound `CC[C@H](N)C(=O)N[C@H](C#N)Cc1ccccc1` yielded a 50% inhibitory concentration (IC50) in [7] of 172 nM. In addition, the remaining at 0.25 h in series [8] was determined as 80%.

As for `N#C[C@H](Cc1ccccc1)NC(=O)CN`, in [7], the half-maximal inhibitory concentration (IC50) is 4790 nM.

Turning to `N#CC(Cc1ccccc1)NC(=O)[C@@H](N)Cc1ccccc1` (stereo in doubt), the IC50 in [7] amounted to 294 nM.

`CC[C@H](N)C(=O)N[C@H](C#N)C/C=C/c1ccccc1`: in [7], the midpoint of inhibition, the IC50, lay at 137 nM.

Regarding `N#C[C@H](Cc1ccccc1)N1CC[C@H](N)C1=O`, in [9], the inhibition result was “inactive”.
